Assay results reported in patent publication US20260242759A1, “GQ/11 Protein Peptidomimetics” (Vrije Universiteit Brussel, priority 2022, published 2026).
Positions of bridges follow the written chain, without caps; N, C: chain ends. Non-standard residues stand in square brackets, D forms with d. Residues, ends and D or L forms follow the SMILES beside them. Triazole bridges read from a SMILES are 1,4-linked. Lys(N3) = [N-]=[N+]=NCCCC[C@H](N)C(=O)O; Cha = N[C@@H](CC1CCCCC1)C(=O)O; Pra = C#CC[C@H](N)C(=O)O

Key:
[1] = biological target: T1, human ghrelin receptor (GHSR) (Homo sapiens, UniProt Q92847, C146S/C304S); assay: Bimane fluorescence assay on purified ghrelin receptor in nanodiscs; format: biochemical; conditions: bimane labeled GHSR; for maximum emission wavelength of bimane: in presence of full agonist JMV1843 (20 μM); for conformational change in the receptor: in presence of JMV1843
T1 construct: integrin α5 fragment (N); polyhistidine tag (C); made in house; host or cells: E. coli BL21(DE3)
Excerpt: Another assay that can be used to analyse conformational changes associated with GPCR activation and/or to identify G protein peptidomimetics that are capable of stabilizing a GPCR in an active conformational state is the bimane fluorescence assay or bimane assay. This assay works through labelling of a cysteine residue in the lower part of the TM6 of a GPCR with a bimane-fluorophore (monobromobimane (MB)). Binding of an agonist to the GPCR causes a conformational change and outward movement of TM6 that places bimane in a more solved-exposed position, which will alter its maximum emission wavelength. In particular, increasing concentrations of agonist result in a concentration-dependent red-shift of the maximum emission wavelength (λmax) of the bimane-fluorophore probe. In the presence of a G protein or an active state stabilizing G protein peptidomimetic λmax may increase further. For example, a bimane labelled ghrelin receptor (such as a cysmin mutant (i.e. mutant with minimal cysteines) of human ghrelin receptor (also referred to herein as growth hormone secretagogue receptor (GHSR) (e.g. the mutant as described in Damian et al. (2021) wherein monobromobimane (MB) fluorescent probe is attached to Cys^255) and ghrelin receptor agonist JMV1843 may be used.
The bimane fluorescence assays on the ghrelin receptor were performed as described in Damian et al. (2021. Nat. Commun. 12:1-15). Briefly, E. coli bacteria (BL21(DE3)) were transformed with a vector encoding the human ghrelin receptor with an integrin α5 fragment at the N-terminus and a polyhistidine tag at the C-terminus. The receptors were then purified and reconstituted into lipidated nanodiscs. The monobromobimane labeling was performed by incubating the receptors, with a unique reactive cysteine at position 255, during 16 h in the dark at 4° C. and in the presence of 0.1 mM tris(2-carboxyethyl)phosphine (TCEO). The reaction was terminated with 5 mM L-cysteine and unreacted monobromobimane was removed using a Zeba™ Spin desalting column.
For the fluorescence assay, the labeled receptor was incubated during 2 h at 20° C. (0.2 μM final concentration), in the absence or presence of the full agonist JMV1843 (20 μM) and in the absence or presence of either the peptidomimetics at varying molar ratios or the purified Gαqβ1γ2 heterotrimer, at a 1:5 receptor-to-G protein molar ratio. Afterwards, the fluorescence experiments were performed on a Horiba Fluoromax-4 TCSP spectrofluorimeter. For each scan, the excitation wavelength (λexc) was set at 380 nm and emission was collected between 440 nm and 520 nm.
The bimane assay is used on GPCRs to detect conformational changes associated with receptor activation. This assay functions through the labelling of a cysteine, which is one of the least frequently occurring amino acids in proteins. Additionally, the majority of the extracellular cysteines form disulfide bonds, which, together with the transmembrane cysteines, are inert to thiol-reactive reagents. Additionally, some of the intracellular cysteines in the C-terminal tail may carry post-translational modifications which reduces the number of reactive cysteines in the receptor (Tian et al. 2017. Chem. Rev. 117:186-245). For GHSR, the remaining reactive cysteine residues C146 (ICL2) and C304 (extracellular end of TM7) were replaced by serines (cysmin mutant, i.e. mutant with minimal cysteines), to allow the monobromobimane (MB) fluorescent probe to be specifically attached to Cys255 in the lower part of TM6 (FIG. 5a) (Damian et al. 2021). In this assay, bimane is chosen because of its small size and sensitivity to the polarity of its environment (Yao et al. 2006. Nat Chem. Biol. 2:417-422). Binding of a ligand to the receptor, causes a conformational change and outward movement of TM6 that places bimane in a more solvent-exposed position, which alters its maximum emission wavelength. […]

[2] = biological target: T2, human muscarinic 1 receptor (M1R) (Homo sapiens, UniProt P11229); assay: Radioligand binding assay (RLA) on M1R membrane extracts; conditions: for Shift: IC50 of agonist without mimetic divided by IC50 with mimetic, averaged value; for increase of agonist affinity / stabilization of the receptor: acetylcholine chloride, mimetic at 100 μM
T2 construct: The M1R constructs used in this assay consisted of the full-length human muscarinic 1 receptor; FLAG (N); expressed in transfected cells; membrane extracts
T2 sequence (P11229 1-460): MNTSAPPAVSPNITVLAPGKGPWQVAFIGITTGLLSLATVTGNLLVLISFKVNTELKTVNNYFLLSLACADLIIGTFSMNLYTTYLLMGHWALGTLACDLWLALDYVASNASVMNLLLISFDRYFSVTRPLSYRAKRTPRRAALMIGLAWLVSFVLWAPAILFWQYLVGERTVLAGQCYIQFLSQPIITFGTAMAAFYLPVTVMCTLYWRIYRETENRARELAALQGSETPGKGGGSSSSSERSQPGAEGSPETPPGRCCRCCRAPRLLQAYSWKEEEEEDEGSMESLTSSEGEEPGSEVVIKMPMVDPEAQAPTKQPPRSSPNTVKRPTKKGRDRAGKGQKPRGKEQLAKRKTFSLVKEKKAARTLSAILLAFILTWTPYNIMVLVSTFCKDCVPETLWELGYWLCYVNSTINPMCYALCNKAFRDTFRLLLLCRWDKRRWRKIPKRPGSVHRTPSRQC
Excerpt: A radioligand displacement assay can quantify the pharmacological stabilization of the GPCR in the active conformation by comparing the affinities of an agonist for the basal versus the active GPCR conformer. In particular, stabilization of a GPCR in an active conformational state or specific binding to a GPCR in an active conformational state by a G protein peptidomimetic or a Gq/11 protein peptidomimetic as disclosed herein can be determined based on the shift in IC50 value of a ligand, in particular an agonist more particularly an orthosteric agonist, which binds to the GPCR when tested in the presence and the absence of the G protein peptidomimetic or the Gq/11 protein peptidomimetic. During the assay, the binding affinity of an orthosteric agonist for the receptor in presence and absence of the (allosteric) peptidomimetic is determined. Therefore, the GPCR, e.g. embedded in membrane extracts, is incubated with a radioligand and different concentrations of the agonist. By increasing the agonist concentration, radioligand will be displaced by the agonist. A leftward shift of the curve in the presence of the peptidomimetic is indicative of a peptidomimetic capable of stabilizing a GPCR in an active conformational state. A “shift” in IC50 value or IC50 shift is defined herein as the IC50 ratio of a ligand, in particular an agonist, more particularly an orthosteric agonist, which binds to the GPCR in the absence of a G protein peptidomimetic or a Gq/11 protein peptidomimetic relative to the presence of the G protein peptidomimetic or the Gq/11 protein peptidomimetic, or the IC50 value of a ligand, in particular an agonist, for binding to the GPCR in the absence of a G protein peptidomimetic or a Gq/11 protein peptidomimetic divided by the IC50 value of the ligand in the presence of the G protein peptidomimetic or the Gq/11 protein peptidomimetic in the same preparation, wherein said IC50 values are determined in a radioligand binding assay or radioligand displacement assay (RLA) as known to the skilled person. For example, a human muscarinic acetylcholine 1 receptor (M1R) radioligand binding assay using ^3H—N-methyl scopolamine (^3H-NMS) as the radioligand and increasing concentrations of acetylcholine chloride (agonist) as cold competitor may be used.
The membrane extracts were prepared from cells that overexpressed muscarinic acetylcholine 1 receptor (M1R), by resuspending the cell pellet in a buffer (1 ml buffer/2×1E7 cells) containing 20 mM Hepes (pH 7.4), 100 mM NaCl, Leupeptin and phenylmethylsulfonyl fluoride (PMSF). Afterwards the cells were vortexed and homogenized in ice using a small volume ULTRA-TURRAX® (6×10 sec). The cells were then centrifuged for 15 min at 16000 rcf, in a pre-cooled centrifuge (4° C.) and resuspended in the previous buffer containing 10% sucrose. Finally, the membranes were again homogenized in ice with the small volume ULTRA-TURRAX® (3×10 sec). The protein concentration in the membrane extracts was determined using a Pierce™ bicinchoninic acidv (BCA) Protein Assay Kit and the protein concentration was extrapolated from the Bovine Serum Albumine standard curve.
The M1R constructs used in this assay consisted of the full-length human muscarinic 1 receptor with a FLAG tag at the N-terminus. A buffer containing 20 mM Hepes pH 7.4, 100 mM NaCl, and 0.1% BSA was used for the ligands, membrane extracts and peptides (+1% dimethylsulfoxide (DMSO)). The competition assay was performed with [3H]—N-methyl scopolamine ([3H]-NMS) as radiolabeled antagonist, at a final concentration of 0.6 nM. A ten-fold dilution series of the agonist, acetylcholine chloride, was prepared to obtain a dose response curve. After incubation, the samples were harvested into filter plates (GF/C) and washed with ice cold washing buffer (20 mM Hepes pH 7.4) using the 96-well harvester. […]

T1 sequence (Q92847 whole entry C146S/C304S, the tested form may be a part): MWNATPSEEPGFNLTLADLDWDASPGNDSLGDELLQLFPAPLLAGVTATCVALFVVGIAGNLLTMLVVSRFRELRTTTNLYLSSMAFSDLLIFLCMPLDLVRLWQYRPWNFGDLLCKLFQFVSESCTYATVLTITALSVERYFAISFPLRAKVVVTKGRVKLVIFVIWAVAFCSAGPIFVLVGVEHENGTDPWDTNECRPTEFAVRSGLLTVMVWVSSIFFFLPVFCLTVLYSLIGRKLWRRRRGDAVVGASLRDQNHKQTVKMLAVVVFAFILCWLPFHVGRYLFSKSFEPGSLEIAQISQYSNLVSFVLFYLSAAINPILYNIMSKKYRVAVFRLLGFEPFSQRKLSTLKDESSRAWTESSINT

Row | Compound | maximum emission wavelength of bimane [1] | Shift [2] | increase of agonist affinity / stabilization of the receptor [2] | conformational change in the receptor [1]
1 | CC[C@H](C)[C@H](NC(=O)[C@@H]1CCCCn2cc(nn2)C[C@H](NC(=O)[C@H](CC(N)=O)NC(=O)[C@H](Cc2ccccc2)NC(=O)[C@H](CCCCN)NC(=O)[C@H](CCCCN)NC(=O)[C@H](CCCCN)NC(C)=O)C(=O)N[C@@H](CS)C(=O)N[C@@H](CCCCN)C(=O)N[C@@H](CC(=O)O)C(=O)N1)C(=O)N[C@@H](CC(C)C)C(=O)N[C@@H](CCC(N)=O)C(=O)N[C@@H](CCSC)C(=O)N[C@@H](CC(N)=O)C(=O)N[C@@H](CC(C)C)C(=O)N[C@@H](CCCNC(=N)N)C(=O)N[C@@H](CCC(=O)O)C(=O)N[C@@H](Cc1ccc(O)cc1)C(=O)N[C@@H](CC(N)=O)C(=O)N[C@@H](CC(C)C)C(=O)N[C@H](C(=O)O)C(C)C [SBL-GQ-11] (Ac-KKKFN[Pra]CKD[Lys(N3)]ILQMNLREYNLV-OH; triazole 6-10) | ~478 nm | 7 | slight increase in agonist affinity | 
2 | CC[C@H](C)[C@H](NC(=O)[C@H](CC(=O)O)NC(=O)[C@H](CCCCN)NC(=O)[C@H](CS)NC(=O)[C@H](CC(=O)O)NC(=O)[C@H](CC(N)=O)NC(=O)[C@H](Cc1ccccc1)NC(=O)[C@H](CCCCN)NC(=O)[C@H](CCCCN)NC(=O)[C@H](CCCCN)NC(C)=O)C(=O)N[C@H](C(=O)N[C@@H](CC(C)C)C(=O)N[C@@H](CCC(N)=O)C(=O)N[C@@H](CCSC)C(=O)N[C@@H](CC(N)=O)C(=O)N[C@@H](CC(C)C)C(=O)N[C@@H](CCCNC(=N)N)C(=O)N[C@@H](CCC(=O)O)C(=O)N[C@@H](Cc1ccc(O)cc1)C(=O)N[C@@H](CC(N)=O)C(=O)N[C@@H](CC1CCCCC1)C(=O)N[C@H](C(=O)O)C(C)C)[C@@H](C)CC [SBL-GQ-10] (Ac-KKKFNDCKDIILQMNLREYN[Cha]V-OH) |  | 2 |  | not able to induce a conformational change
3 | CC[C@H](C)[C@H](NC(=O)[C@@H]1CCCCn2cc(nn2)C[C@H](NC(=O)[C@H](CC(N)=O)NC(=O)[C@H](Cc2ccccc2)NC(=O)[C@H](CCCCN)NC(=O)[C@H](CCCCN)NC(=O)[C@H](CCCCN)NC(C)=O)C(=O)N[C@@H](CS)C(=O)N[C@@H](CCCCN)C(=O)N[C@@H](CC(=O)O)C(=O)N1)C(=O)N[C@@H](CC(C)C)C(=O)N[C@@H](CCC(N)=O)C(=O)N[C@@H](CCSC)C(=O)N[C@@H](CC(N)=O)C(=O)N[C@@H](CC(C)C)C(=O)N[C@@H](CCCNC(=N)N)C(=O)N[C@@H](CCC(=O)O)C(=O)N[C@@H](Cc1ccc(O)cc1)C(=O)N[C@@H](CC(N)=O)C(=O)N[C@@H](CC1CCCCC1)C(=O)N[C@H](C(=O)O)C(C)C [SBL-GQ-12] (Ac-KKKFN[Pra]CKD[Lys(N3)]ILQMNLREYN[Cha]V-OH; triazole 6-10) | ~478 nm | 34 | more significant and promising stabilization of the receptor | 
4 | CC[C@H](C)[C@H](NC(=O)[C@@H]1CCCCn2cc(nn2)C[C@H](NC(=O)[C@H](C)NC(=O)[C@H](Cc2ccccc2)NC(=O)[C@H](CCCCN)NC(=O)[C@H](CCCCN)NC(=O)[C@H](CCCCN)NC(C)=O)C(=O)N[C@@H](C(C)C)C(=O)N[C@@H](CCCCN)C(=O)N[C@@H](CC(=O)O)C(=O)N1)C(=O)N[C@@H](CC(C)C)C(=O)N[C@@H](CCC(N)=O)C(=O)N[C@@H](CC(C)C)C(=O)N[C@@H](CC(N)=O)C(=O)N[C@@H](CC(C)C)C(=O)N[C@@H](CCCCN)C(=O)N[C@@H](CCC(=O)O)C(=O)N[C@@H](Cc1ccc(O)cc1)C(=O)N[C@@H](CC(N)=O)C(=O)N[C@@H](CC1CCCCC1)C(=O)N[C@H](C(=O)O)C(C)C [SBL-GQ-06] (Ac-KKKFA[Pra]VKD[Lys(N3)]ILQLNLKEYN[Cha]V-OH; triazole 6-10) | ~478 nm | 8 | slight increase in agonist affinity | 
5 | Ac-KKKFAAVKDTILQLNLKEYNLV-OH [SBL-GQ-02] |  | 2 |  | not able to induce a conformational change
6 | Ac-KKKFNDCKDIILQMNLREYNLV-OH [SBL-GQ-08] |  | 2 |  | not able to induce a conformational change
